Assay results as given in patent US8367873B2, “Phenyl-substituted bicyclooctane-1,3-dione derivatives” (Bayer Cropscience AG, priority 2008, dated 2013).

Key:
Format in all cases: in vivo
Alopecurus myosuroides [1] = assay: Herbicidal pre-emergence action; details: pre-emergence method, 80 g/ha, greenhouse, visual assessment vs untreated controls
Outline: (§1)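 Visual percent effect relative to untreated controls (0% = like control, 100% = dead) assessed three weeks after treatment in the greenhouse. Compounds, as wettable powders in water (600 l/ha, 0.2% wetting agent), were sprayed at different amounts onto covering soil over seeds sown in sandy loam.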

Echinocloa crus-galli [2] = assay: Herbicidal pre-emergence action; details: pre-emergence method, 80 g/ha, greenhouse, visual assessment vs untreated controls
Outline: as §1

Lolium multiflorum [3] = assay: Herbicidal pre-emergence action; details: pre-emergence method, 80 g/ha, greenhouse, visual assessment vs untreated controls
Outline: as §1

Setaria viridis [4] = assay: Herbicidal pre-emergence action; details: pre-emergence method, 80 g/ha, greenhouse, visual assessment vs untreated controls
Outline: as §1

Alopecurus myosuroides [5] = assay: Herbicidal post-emergence action; details: post-emergence method, 80 g/ha
Outline: (§2)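 Greenhouse-grown weeds were treated post-emergence at the one-leaf stage, two to three weeks after sowing in sandy loam. Compounds formulated as WP were sprayed at various rates in 600 l/ha water with 0.2% wetting agent. Damage was scored visually after about three weeks versus untreated controls (0% = like control, 100% = dead).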

Echinocloa crus-galli [6] = assay: Herbicidal post-emergence action; details: post-emergence method, 80 g/ha
Outline: as §2

Lolium multiflorum [7] = assay: Herbicidal post-emergence action; details: post-emergence method, 80 g/ha
Outline: as §2

Setaria viridis [8] = assay: Herbicidal post-emergence action; details: post-emergence method, 80 g/ha
Outline: as §2

[9] = system: monocotylidonous and dicotylidonous weed and crop plants; assay: Herbicidal pre-emergence action (other test plants); details: pre-emergence method, 80 g/ha, greenhouse, visual assessment vs untreated controls
Outline: as §1

[10] = system: monocotylidonous and dicotylidonous weed and crop plants; assay: Herbicidal post-emergence action (other test plants); details: post-emergence method, 80 g/ha
Outline: as §2

SMILES	herbicidal effect ALOMY (Alopecurus myosuroides [1]) [%]	herbicidal effect ECHCG (Echinocloa crus-galli [2]) [%]	herbicidal effect LOLMU (Lolium multiflorum [3]) [%]	herbicidal effect SETVI (Setaria viridis [4]) [%]	herbicidal effect against ALOMY (Alopecurus myosuroides) (Alopecurus myosuroides [5]) [%]	herbicidal effect against ECHCG (Echinochloa crus-galli) (Echinocloa crus-galli [6]) [%]	herbicidal effect against LOLMU (Lolium multiflorum) (Lolium multiflorum [7]) [%]	herbicidal effect against SETVI (Setaria viridis) (Setaria viridis [8]) [%]	herbicidal effect AVEFA [9] [%]	herbicidal effect against AVEFA (Avena fatua) [10] [%]
COC(=O)OC1=C(c2c(C)cc(C)cc2C)C(=O)C2CC3(CC12)OCC=CCO3 (racemic) [I-c-52]	60	50	100	70	100	90	100	100	70	80
C=C1CC2C(=O)C(c3c(C)cc(C)cc3OC)=C(OC(=O)OCC)C2C1 (racemic) [I-c-61]	70	90	50	90	40	90	70	90	60	0
CCOC(=O)OC1=C(c2c(C)cc(C)cc2OC)C(=O)C2CC3(CC12)OCCCO3 (racemic) [I-c-63]	80	50	100	50	100	100	100	100	70	100
CCOC(=O)OC1=C(c2c(C)cc(C)cc2OC)C(=O)C2CC3(CC12)OCCO3 (racemic) [I-c-64]	60	50	100	70	80	100	100	100	70	80
CCOC(=O)OC1=C(c2c(C)cc(C)cc2OC)C(=O)C2CC3(CC12)OCC=CCO3 (racemic) [I-c-65]	100	80	100	90	100	100	100	100	60	100
CCOC(=O)OC1=C(c2c(C)cc(C)cc2OC)C(=O)C2CC3(CC12)OCCCCO3 (racemic) [I-c-66]	100	100	100	60	100	100	100	100	70	100
CCOC(=O)OC1=C(c2c(C)cc(C)cc2CC)C(=O)C2CC3(CC12)OCC=CCO3 (racemic) [I-c-72]	60	100	100	80	100	100	100	100	50	70
CCc1cc(C)cc(C)c1C1=C(OC(=O)OC)C2CC3(CC2C1=O)OCC=CCO3 (racemic) [I-c-73]	70	50	100	60	100	100	100	100	40	0
CCc1cc(C)cc(C)c1C1=C(OC(=O)OC(C)C)C2CC3(CC2C1=O)OCC=CCO3 (racemic) [I-c-74]	70	100	100	100	60	100	100	100	60	70
CCOC(=O)OC1=C(c2c(C)cc(C)cc2CC)C(=O)C2CC3(CC12)OCCCCO3 (racemic) [I-c-75]	70	100	100	60	60	100	100	100	60	50
C=C1CC2C(=O)C(c3c(C)cc(C)cc3CC)=C(OC(=O)OCC)C2C1 (racemic) [I-c-76]	80	100	90	90	10	100	90	100	20	0
C=C1CC2C(=O)C(c3c(C)cc(C)cc3CC)=C(OC(=O)OC)C2C1 (racemic) [I-c-77]	80	80	90	100	0	100	90	90	80	0
CCc1cc(C)cc(CC)c1C1=C(O)[C@H]2CC3(C[C@H]2C1=O)OCC(C)(C)CO3 (relative stereo) [I-a-9]	90	100	100	90	60	100	90	90	70	60
CCc1cc(C)cc(CC)c1C1=C(O)[C@H]2CC3(C[C@H]2C1=O)OC(C)(C)C(C)(C)O3 (relative stereo) [I-a-19]	90	0	100	20	80	90	100	50	20	0
